Laboratory results reported in patent US20240082212A1, “USE OF MDMA FOR TREATMENT OF STRESS-RELATED DISORDERS” (priority 2022, published 2024).

Columns and labels:
[1] = target: Nicotinic acetylcholine α3β4 (Homo sapiens, UniProt P30926+P32297); test: Eurofins Panlabs radioligand binding panel, nicotinic acetylcholine α3β4
[2] = test system: C57BL/6J mice; test: Head twitch response (HTR); type: in vivo, mouse; conditions: 30 minutes after injection
Description: Male C57BL/6J mice at 6-8 weeks of age were purchased from Jackson Laboratories and housed four per cage in a climate and humidity-controlled room in a vivarium at the University of California, San Diego. The room operated on a reverse light cycle (lights on at 1900 h, off at 0700 h) with food and water available ad libitum, except during testing. All testing was performed during 1000 h and 1800 h. After a minimum of 1 week acclimation to the housing facility, mice were anesthetized using a mixture of ketamine (100 mg/kg IP) and xylazine (10 mg/kg IP). Under deep anesthesia, an incision was made in the scalp and a small neodymium magnet (4.57 mm×4.57 mm×2.03 mm) was attached to the cranium using cyanoacrylate and dental cement. After at least a 2-week recovery period, the mouse was removed from the home cage and injected intraperitoneally with the test article or vehicle (0.9% sterile saline). Immediately, the mouse was placed in a glass cylinder surrounded by a magnetometer coil and the head twitch response (HTR) was assessed for 30 minutes (Halberstadt and Geyer, 2013). The output of the coil was recorded using a Powerlab/8SP with LabChart v.7.3.2 (ADInstruments). Coil voltage was amplified, low-pass filtered (2-10 kHz cut-off frequency) to remove interference, digitized and sampled at 20 kHz. Head twitches were identified using a validated technique based on artificial intelligence (Halberstadt, 2020). Events in the recordings were transformed into a visual representation in the time-frequency domain and deep features were extracted using the pretrained convolutional neural network ResNet-50, and the images were subsequently classified using a Support Vector Machine algorithm.
Test articles (R,S-MDA, R(−)-MDA, S-(+)MDA), R,S-MDMA, R(−)-MDMA and S(+)-MDMA) were supplied by the NIDA Drug Supply Program as neat powders. Racemic MDA and MDMA and their enantiomers were dissolved in saline and injected IP at a volume of 5 mL/kg. Each dose was calculated based on the salt form of the compounds. For each treatment condition, six groups of mice (n=5-6/group) were treated with vehicle or the test drug (0.1, 0.3, 1, 3, or 10 mg/kg) and HTR assessed for 30 minutes immediately following injections. To avoid carryover effects, each treatment condition was performed at least seven days apart. Total number of mice used for the experiment was 63.

[3] = target: T1, Serotonin 5-HT2C (Homo sapiens, UniProt P28335); test: biochemical; type: binding
T1 sequence (P28335 33-458): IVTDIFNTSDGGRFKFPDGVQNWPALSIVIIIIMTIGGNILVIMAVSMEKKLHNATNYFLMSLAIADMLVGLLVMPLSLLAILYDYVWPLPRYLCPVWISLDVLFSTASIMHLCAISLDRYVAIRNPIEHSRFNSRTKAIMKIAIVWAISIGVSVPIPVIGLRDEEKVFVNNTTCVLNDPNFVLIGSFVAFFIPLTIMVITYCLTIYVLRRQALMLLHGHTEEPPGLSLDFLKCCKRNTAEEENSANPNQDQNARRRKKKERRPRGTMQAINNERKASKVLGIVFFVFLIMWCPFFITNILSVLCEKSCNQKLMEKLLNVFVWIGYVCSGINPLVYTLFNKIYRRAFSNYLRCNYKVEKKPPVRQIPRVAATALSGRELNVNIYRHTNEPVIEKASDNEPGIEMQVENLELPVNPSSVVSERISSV

[4] = read-out: % inhibition of binding or activity

Nicotinic acetylcholine α3β4, sequence (P32297 32-505): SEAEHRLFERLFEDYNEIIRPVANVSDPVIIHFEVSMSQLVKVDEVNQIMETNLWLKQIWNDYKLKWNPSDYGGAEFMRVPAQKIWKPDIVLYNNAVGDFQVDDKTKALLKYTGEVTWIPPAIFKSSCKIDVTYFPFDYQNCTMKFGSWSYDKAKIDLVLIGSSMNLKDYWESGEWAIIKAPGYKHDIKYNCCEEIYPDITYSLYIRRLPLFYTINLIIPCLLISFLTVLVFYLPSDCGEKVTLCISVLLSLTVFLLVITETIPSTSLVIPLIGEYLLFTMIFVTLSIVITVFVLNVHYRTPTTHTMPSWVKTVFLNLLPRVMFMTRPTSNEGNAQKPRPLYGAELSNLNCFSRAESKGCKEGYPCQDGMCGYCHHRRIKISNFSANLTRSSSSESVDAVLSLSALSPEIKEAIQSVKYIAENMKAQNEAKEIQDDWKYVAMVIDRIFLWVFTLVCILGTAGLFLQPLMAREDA
Nicotinic acetylcholine α3β4, sequence (P30926 22-498): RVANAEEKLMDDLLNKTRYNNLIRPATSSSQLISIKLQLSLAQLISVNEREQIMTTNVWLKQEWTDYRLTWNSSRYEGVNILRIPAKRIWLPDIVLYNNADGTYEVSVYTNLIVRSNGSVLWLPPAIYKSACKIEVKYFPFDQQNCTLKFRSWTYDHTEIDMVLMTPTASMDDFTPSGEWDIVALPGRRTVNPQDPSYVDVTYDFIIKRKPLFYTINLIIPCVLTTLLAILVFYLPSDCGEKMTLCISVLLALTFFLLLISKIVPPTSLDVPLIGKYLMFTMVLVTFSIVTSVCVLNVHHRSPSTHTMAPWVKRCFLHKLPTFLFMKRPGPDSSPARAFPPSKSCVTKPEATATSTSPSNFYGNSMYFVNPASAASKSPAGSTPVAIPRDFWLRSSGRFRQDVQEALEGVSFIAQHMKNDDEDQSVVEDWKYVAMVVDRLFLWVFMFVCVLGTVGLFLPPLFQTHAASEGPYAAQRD

CNC(C)Cc1ccc2c(c1)OCO2 (racemic) [Racemic MDMA, 3,4-methylenedioxymethamphetamine]
% inhibition of binding or activity ([1]; 10 uM): 66%
head twitch response (HTR) compared to control (vehicle) ([2]; 3 mg/kg IP, listed as R,S-MDMA): decrease in HTR
% inhibition of binding or activity ([3]; 10 µM): 87%

CNC(C)Cc1ccc2c(c1)OCO2 (single isomer, unassigned) [R-MDMA, R(−)-3,4-methylenedioxymethamphetamine]
inhibition at 10 µM [1, 4]: 55%
head twitch response (HTR) compared to control (vehicle) ([2]; 3 mg/kg IP): increase in HTR
inhibition at 10 µM [3, 4]: 78%

CNC(C)Cc1ccc2c(c1)OCO2 (single isomer, unassigned) [S-MDMA, S(+)-MDMA]
head twitch response (HTR) compared to control (vehicle) ([2]; 3 mg/kg IP): reduction of HTR
head twitch response (HTR) compared to control (vehicle) ([2]; 10 mg/kg IP): reduction of HTR

C[C@H](N)Cc1ccc2c(c1)OCO2 [S-MDA, S(+)-MDA]
head twitch response (HTR) compared to control (vehicle) ([2]; 10 mg/kg IP): reduction of HTR
